T1: Rbt5(23–219)-Myc-6×His (C. albicans, UniProt Q59UT4 23-219)
T1 construct: Rbt5, C. albicans CFEM protein, residues 23-219: from the predicted signal peptide cleavage site to the predicted GPI anchor addition site; RBT5 nucleotides +67 to +657 cloned EcoRI-XbaI into pPICZalphaA (KB2258); Apo-protein (heme removed with 3 M imidazole); The vector pPICZalphaA may leave a few residues at the N-terminus after the alpha-factor signal is cut; also called rRbt5; recombinant …
T1 sequence: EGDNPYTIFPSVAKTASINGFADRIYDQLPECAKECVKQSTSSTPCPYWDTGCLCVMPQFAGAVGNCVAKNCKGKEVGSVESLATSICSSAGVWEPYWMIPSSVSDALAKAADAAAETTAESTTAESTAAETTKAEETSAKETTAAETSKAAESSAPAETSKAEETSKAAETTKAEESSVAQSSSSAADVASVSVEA

B1: Pga7(18–195)-Myc-6×His (domain or fragment)
chain: NFGTYPKVPKTASINGFADPIYDLLPDCAKECVKFSTSNTPCPYWDTGCFCVMPQWAGLVGQCVAQKCKGEDVASARFLATSLCSVVGANTWMMPASISSMLSTAAGDAKEVTTIEGKTAKSWVTAPGSAAGSVVSETGSASETGSSESAQSTTTGSSSTGSSSTDSSSSSSSSPSSS
notes: Pga7, C. albicans CFEM protein, residues 18-195: from the predicted signal peptide cleavage site to the predicted GPI anchor addition site; PGA7 nucleotides +52 to +585 cloned EcoRI-XbaI into pPICZalphaA (KB2259); Used as apo-protein (heme removed) or as holo-protein (loaded with heme, not covalent); both are this one construct; The vector pPICZalphaA may leave a few residues at the N-terminus …

Assays:
Rbt5 = biological target: T2, Rbt5 (Candida albicans, UniProt Q59UT4); test: ITC; also hemin-agarose pull-down, size exclusion co-elution, Soret peak; assay type: binding
T2 construct: Rbt5_23–219 (C-terminal Myc-6×His, expressed in Pichia pastoris)

Pga7 = biological target: T3, Pga7 (Candida albicans, UniProt Q59UT5); test: ITC; also Soret-shift UV-Vis titration ([…]), 1H NMR, hemin-agarose pull-down; assay type: binding
T3 construct: Pga7_18–195 (C-terminal Myc-6×His, expressed in Pichia pastoris)

Rbt5(23–219)-Myc-6×His = biological target: T1, Rbt5(23–219)-Myc-6×His; test: SPR; Biacore T200; apo-Pga7(18–195), apo-Rbt5(23–219) and apo-Rbt5(23–219) D72A immobilised on a CM-5 chip by amine chemistry; 3 µM holo-Pga7(18–195) (with heme) injected for 60 sec; double-blanked against an empty cell and buffer; conditions: both partners purified

Molecule | Kd (Rbt5) | Kd (Pga7) | binding result (Rbt5(23–219)-Myc-6×His)
C=CC1=C(C)C2=Cc3c(C=C)c(C)c4[n]3[Fe]([Cl])[n]3c(c(C)c(CCC(=O)O)c3=CC3=NC(=C4)C(C)=C3CCC(=O)O)=CC1=N2 [hemin] | 5400 nM | 65 nM | 
B1 |  |  | binds
